According to patent US20190376046A1, “METHODS FOR MANIPULATING CELL FATE” (The McLean Hospital Corporation, priority 2017, published 2019):

Experiments:
SIRT2 [1] = experiment: SIRT2 expression by qRT-PCR and western blot after pre-miRNA transfection; format: cell-based, human; details: fibroblasts transfected with pre-miRNA
Protocol: Samples (50 μg) were loaded onto a 12% SDS-PAGE and separated by electrophoresis followed by transfer onto a piece of Immun-Blot PVDF membrane (Bio-Rad, Hercules, Calif.). After transfer, the membrane was blocked at room temperature with Tris-buffered saline (TBS) containing 0.1% Tween-20 and 5% (w/v) skim milk for 3-5 h and then incubated overnight at 4° C. with primary antibody. The membrane was washed three times with TBS containing 0.05% Tween-20 (TBST) and then incubated for 2 h with the appropriate secondary antibody (Pierce, Rockford, Ill.). After washing twice with TBST and once with TBS, bound antibodies were detected by chemiluminescence using the SuperSignal® West Pico kit (Pierce). […]
Total RNA was extracted from cells by using the Direct-zol RNA purification Kit (Zymo research, Irvine, Calif.) and cDNA was synthesized using the ThermoScript™ RT-PCR system (Invitrogen). For quantitative analysis, qRT-PCR (Bio-Rad) was performed using SsoAdvanced SYBR Green supermix (Bio-Rad) with target genes specific primers. […]

[2] = tested on: CDS fragments of SIRT2 (MREs); experiment: Luciferase reporter assay; format: cell-based, human; details: 293T cells, psicheck2 SIRT2 CDS fragments
From the text: Human SIRT1 or SIRT2 was PCR-amplified from hESCs (H9) or hDFs, respectively, then cloned into the pGEM®-T Easy vector (Promega, Madison, Wis.). The 2A sequence of the Thoseaasigna virus (T2A)-linked EGFP was amplified from pCXLE-EGFP plasmid (#27082; Addgene, Cambridge, Mass.) by […], cloned into the […] vector. The SIRT1 and SIRT2 fragments were then cut off from the corresponding vectors and inserted into the pGEM-T-T2A-EGFP to generate pGEM-T-SIRT1-T2A-EGFP and pGEM-T-SIRT2-T2A-EGFP, respectively. The SIRT1-T2A-EGFP and SIRT2-T2A-EGFP constructs were confirmed by sequencing and then introduced into the EcoRI site of FUW-tetO vector (Addgene), respectively. Human AldoA-Myc constructs, the AldoA fragment was PCR-amplified from hESCs (H9), and then cloned into the pcDNA3.1-Myc/His vector (Invitrogen). For the psicheck2 constructs, the CDS fragments were cloned in downstream of a Renilla luciferase open reading frame. […]
The Promega dual luciferase assay kit was used to perform the luciferase assay according to the manufacturer's instruction. In brief, cell lysates were analyzed for luciferase activity using the dual luciferase system in which two luciferase enzymes, one (from Renilla reniformis) containing the experimental target sequence and another (from firefly) containing the control. […]

SIRT3 = target: T1, SIRT3 (Homo sapiens, UniProt Q9NTG7); details: cited from earlier work
T1 sequence (Q9NTG7 1-399): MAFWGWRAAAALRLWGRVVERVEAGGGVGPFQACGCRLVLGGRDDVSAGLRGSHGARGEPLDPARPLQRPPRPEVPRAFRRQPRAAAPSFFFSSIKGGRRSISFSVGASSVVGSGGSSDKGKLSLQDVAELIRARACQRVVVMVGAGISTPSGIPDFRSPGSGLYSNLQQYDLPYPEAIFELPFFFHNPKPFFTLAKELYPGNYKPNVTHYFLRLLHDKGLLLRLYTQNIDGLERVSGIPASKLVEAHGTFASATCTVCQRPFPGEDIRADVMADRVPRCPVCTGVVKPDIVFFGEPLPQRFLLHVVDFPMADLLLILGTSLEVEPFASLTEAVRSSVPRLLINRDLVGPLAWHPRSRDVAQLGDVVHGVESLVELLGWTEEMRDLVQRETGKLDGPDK

PI3K = details: read-out: IC50 (PI3K inhibitor); cited from earlier work
[3] = tested on: hPSCs (H9, H7, hiPSC-1, hiPSC-2); experiment: Annexin V/7-AAD staining (apoptosis); format: cell-based, human; details: pretreatment; hPSCs with Dox-induced SIRT2 OE
hDFs = experiment: Human iPSC induction, AP-positive colonies; format: cell-based; details: 1 mM or higher concentration; fibroblasts
Protocol: Human dermal fibroblasts (hDFs) were cultured in Dulbecco's modified Minimal Essential Medium (DMEM; Invitrogen, Carlsbad, Calif.) supplemented with 2 mM L-glutamine (Invitrogen), 10% fetal bovine serum (FBS; Invitrogen), 100 U/ml penicillin and 100 μg/ml streptomycin (Invitrogen). For iPSC induction, DMEM/F-12 medium supplemented with 2 mM L-glutamine (Invitrogen), 1 mM […] (Invitrogen), 1× non-essential amino acids (NEAA; Invitrogen), 20% knock-out serum replacement (KSR; Invitrogen), 100 U/ml penicillin, 100 μg/ml streptomycin (Invitrogen) and 10 ng/ml basic fibroblast growth factor (bFGF; Invitrogen) was used as the reprogramming medium. Human ESC lines and hiPSC lines were maintained in Essential 8 medium (Invitrogen) using Matrigel® Matrix (Corning Life Sciences, Tewksbury, Mass.) and passaged using 0.5 mM EDTA (Invitrogen) for gentle dissociation.
Human iPSCs were generated using lentiviral particles by inducible lentiviral vectors or STEMCCA vectors to introduce the OSKM factors (Oct4, Sox2, Klf4, and c-Myc) into fibroblasts^49. ES-like colonies formed after 3 weeks of viral infection and the observed ES-like colonies were handpicked and transferred onto mouse feeder cells (MEF)-plated or Matrigel-coated tissue culture plates to generate iPSC lines. iPSC colonies were mechanically picked until iPSC lines were established.

[4] = tested on: human dermal fibroblasts (hDFs); experiment: Live cell metabolic analysis (Seahorse XF, OCR/ECAR) in fibroblasts; format: cell-based; details: 0.2 mM; Y4+SIRT2 KD fibroblasts
Protocol: Oxygen consumption rate (OCR) and extracellular acidification rates (ECAR) were measured using the XFp8 or XF24 analyzer (Seahorse Bioscience, MA) according to the manufacturer's instruction. Briefly, cells were plated into wells of an XF cell culture microplate and incubated at 37° C. in a CO2 incubator for 24 h to ensure attachment. The assay was started after cells were equilibrated for 1 h in XF assay medium supplemented with 10 mM glucose, 5 mM sodium pyruvate and 2 mM glutamine in a non-CO2 incubator. Mitochondrial activity between hDFs and hESCs/parental hDFs and iPSCs were monitored through sequential injections of 1 μM oligomycin, […] FCCP and 1 μM rotenone/antimycin A to calculate basal respiration rates (baseline OCR—rotenone/antimycin A OCR), ATP dependent (basal respiration rate—oligomycin OCR), maximum respiration (FCCP OCR— rotenone/antimycin A OCR), and oxidative reserve (maximum respiration rate—basal respiration rate). Glycolytic processes were measured by serial injections of 10 mM glucose, 1 μM oligomycin, and 100 mM 2-deoxyglucose to calculate basal glycolytic rate, glycolytic capacity (in response to oligomycin), and glycolytic reserve (glycolytic capacity—basal rate). Each plotted value was normalized to total protein quantified using a Bradford protein assay (Bio-Rad).

SIRT1 = target: T2, SIRT1 (Homo sapiens, UniProt Q96EB6); details: cited from earlier work
T2 sequence (Q96EB6 1-747): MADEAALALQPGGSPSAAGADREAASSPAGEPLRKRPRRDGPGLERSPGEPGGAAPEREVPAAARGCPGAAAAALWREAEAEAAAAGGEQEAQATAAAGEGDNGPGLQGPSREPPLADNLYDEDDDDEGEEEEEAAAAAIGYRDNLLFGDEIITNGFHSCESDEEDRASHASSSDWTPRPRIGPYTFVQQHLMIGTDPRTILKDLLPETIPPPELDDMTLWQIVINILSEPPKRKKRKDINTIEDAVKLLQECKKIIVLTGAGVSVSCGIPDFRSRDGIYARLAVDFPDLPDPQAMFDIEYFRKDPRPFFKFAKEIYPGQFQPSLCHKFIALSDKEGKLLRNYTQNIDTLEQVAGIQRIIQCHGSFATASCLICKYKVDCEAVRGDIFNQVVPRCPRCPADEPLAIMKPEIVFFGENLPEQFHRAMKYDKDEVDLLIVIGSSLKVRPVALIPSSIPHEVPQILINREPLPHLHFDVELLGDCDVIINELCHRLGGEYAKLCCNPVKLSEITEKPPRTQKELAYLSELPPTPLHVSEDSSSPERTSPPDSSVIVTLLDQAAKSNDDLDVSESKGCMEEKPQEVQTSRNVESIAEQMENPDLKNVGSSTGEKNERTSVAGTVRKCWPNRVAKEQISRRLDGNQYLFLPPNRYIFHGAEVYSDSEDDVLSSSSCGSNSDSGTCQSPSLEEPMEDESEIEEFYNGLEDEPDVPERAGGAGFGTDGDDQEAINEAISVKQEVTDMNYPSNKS

SIRT2 [5] = target: T3, SIRT2 (Homo sapiens, UniProt Q8IXJ6); details: relative to SIRT1; cited from earlier work
T3 sequence (Q8IXJ6 1-389): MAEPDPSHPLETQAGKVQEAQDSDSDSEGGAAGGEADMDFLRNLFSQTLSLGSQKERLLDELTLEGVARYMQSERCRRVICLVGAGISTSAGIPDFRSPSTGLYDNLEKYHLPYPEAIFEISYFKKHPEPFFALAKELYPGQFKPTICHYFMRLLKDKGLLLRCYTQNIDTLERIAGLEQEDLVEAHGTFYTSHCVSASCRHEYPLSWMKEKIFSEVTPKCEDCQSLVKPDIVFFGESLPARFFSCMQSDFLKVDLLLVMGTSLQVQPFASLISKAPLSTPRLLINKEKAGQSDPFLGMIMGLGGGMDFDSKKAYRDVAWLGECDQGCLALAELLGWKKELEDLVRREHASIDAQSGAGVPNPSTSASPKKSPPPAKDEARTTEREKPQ

With “pre-miR-200c-5p: precursor miRNA oligomer of miR-200c-5p, CGUCUUACCCAGCAGUGUUUGG (SEQ ID NO: 1) (further chemistry not given here; listed as Homo sapiens)” the “SIRT2 expression (mRNA and protein)” value (SIRT2 [1]) was “significantly decreased” and the “reporter expression of both MREs” value [2] was “significantly decreased”.
For `CN(C)CCCCC(=O)Nc1ccc(NC(=S)NC(=O)c2ccc(C(C)(C)C)cc2)cc1` [Tenovin-6], the IC50 (SIRT3; purified human SIRT3 in vitro, read-out: IC50 protein deacetylase activity of SIRT3) is given as 67 µM.
For `O=c1c(O)c(-c2ccc(O)c(O)c2)oc2cc(O)cc(O)c12` [Quercetin], the IC50 (PI3K) is listed as 2.4 to 5.4 µM.
With `CC(=O)N[C@@H](CS)C(=O)O` [N-acetyl-L-Cysteine] the SIRT2-induced cell death [3] was “rescued”.
In the case of `O=CC[C@@H](O)[C@H](O)[C@H](O)CO` [2DG, 2-deoxy-glucose], the “generation of iPSC-like colonies” value (hDFs) is reported as “completely blocked” and the glycolytic flux [4] is reported as “decreased the glycolytic flux in Y4+SIRT2 KD to the level of Y4 only without 2DG”.
For `N#C/C(=C\c1ccc(-c2cc(Cl)ccc2Cl)o1)C(=O)Nc1cccc2ncccc12` [AGK2], the “effect on SIRT1” value (SIRT1; at 10-fold higher levels than SIRT2 IC50) is listed as “minimally affects”.
For `CCCCCCCCCCCCCC(=S)NCCCC[C@H](NC(=O)OCc1ccccc1)C(=O)Nc1ccccc1` [Thiomyristoyl], the “inhibition of SIRT3” value (SIRT3; at 200 μM) is listed as “does not inhibit SIRT3 even at 200 μM”.
In the case of `O=C(Nc1ccccc1-c1cn2c(CN3CCNCC3)csc2n1)c1cnc2ccccc2n1` [SRT1720], the “fold less potent for SIRT3” value (SIRT3; relative to SIRT1) is given as over 230 fold, the EC50 (SIRT1; cell-free assay, read-out: EC50 (SIRT1 activator)) is given as 0.16 µM and the “fold less potent for SIRT2” value (SIRT2 [5]) is given as over 230 fold.
